Key:
[1] = test system: Cynomolgus monkey; test: Reduction of plasma insulin level in normal cynomolgus monkey at 1 mg/kg after 8 hrs; type: functional, Macaca fascicularis; design: scale not given: the % may be the effect or the level left
[2] = test system: Cynomolgus monkey; test: Reduction of plasma insulin level in normal cynomolgus monkey at 3 mg/kg after 8 hrs; type: functional, Macaca fascicularis; design: scale not given: the % may be the effect or the level left
[3] = Metabolic stability in mouse liver microsomes; type: ADME, Microsome; details: read-out: Stability
[4] = Metabolic stability in human liver microsomes; type: ADME, Microsome; details: read-out: Stability

Compound	Activity [1]	Activity [2]	half-life [3]	half-life [4]
N#Cc1ccc(-c2ccc(S(=O)(=O)Nc3cccc(N)n3)cc2)cc1	54%	60%	–	–
C[C@@H]1CN(c2ccc(F)cc2C(F)(F)F)CCN1S(=O)(=O)c1cccc(-n2cncn2)c1	–	–	12 min	17 min

— ChEMBL document CHEMBL1152435, “Efficacious 11beta-hydroxysteroid dehydrogenase type I inhibitors in the diet-induced obesity mouse model” (J Med Chem, 2009)
